The source of these data is US5889029A, “Use of cotinine in treating psychiatric disorders” (priority 1997, dated 1999).

In one series the target is T1, dopamine uptake site (Cavia porcellus, UniProt H0WCX4).
T1 construct: Guinea pig striatal membranes; from tissue; host or cells: guinea pig striatal membranes
The series is described as follows: Dopamine Reuptake Binding Assay. Particulars: Guinea pig striatal membranes, [3H]WIN,35,428 1.0 nM.

A further series deals with T2, GABA uptake site (Rattus norvegicus, UniProt P23978).
T2 construct: Rat cortical membranes; from tissue; host or cells: rat cortical membranes
The series is described as follows: biochemical. The conditions noted are these: Rat cortical membranes, [3H]GABA 3.6 nM, read-out: Receptor Binding Activity Percent Inhibition Average (N = 2).

The target in the next series is T3, Dopamine (D1 Central) (Rattus norvegicus, UniProt P18901).
T3 construct: Rat striatal membranes; from tissue; host or cells: rat striatal membranes
T3 sequence (P18901 whole entry): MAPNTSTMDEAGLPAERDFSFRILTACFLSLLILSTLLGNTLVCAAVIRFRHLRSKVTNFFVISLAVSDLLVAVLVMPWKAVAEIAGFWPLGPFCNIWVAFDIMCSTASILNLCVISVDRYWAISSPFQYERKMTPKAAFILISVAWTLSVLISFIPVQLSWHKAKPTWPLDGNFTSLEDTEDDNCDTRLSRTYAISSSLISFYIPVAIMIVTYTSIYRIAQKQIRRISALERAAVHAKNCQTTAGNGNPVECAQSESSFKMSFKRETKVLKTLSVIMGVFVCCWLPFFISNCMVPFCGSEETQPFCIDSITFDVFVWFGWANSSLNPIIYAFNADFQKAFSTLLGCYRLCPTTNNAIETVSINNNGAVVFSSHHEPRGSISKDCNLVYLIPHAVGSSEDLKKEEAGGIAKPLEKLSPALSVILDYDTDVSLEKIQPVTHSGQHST
The series is described as follows: Dopamine (D1 Central) Binding Assay. The conditions noted are these: Rat striatal membranes, [3H]SCH 23390 0.5 nM.

The target in a further series is T4, Serotonin (5HT1A) (Bos taurus, UniProt F6Q2H9).
T4 construct: Bovine hippocampal membranes; from tissue; host or cells: bovine hippocampal membranes
T4 sequence (F6Q2H9 1-422): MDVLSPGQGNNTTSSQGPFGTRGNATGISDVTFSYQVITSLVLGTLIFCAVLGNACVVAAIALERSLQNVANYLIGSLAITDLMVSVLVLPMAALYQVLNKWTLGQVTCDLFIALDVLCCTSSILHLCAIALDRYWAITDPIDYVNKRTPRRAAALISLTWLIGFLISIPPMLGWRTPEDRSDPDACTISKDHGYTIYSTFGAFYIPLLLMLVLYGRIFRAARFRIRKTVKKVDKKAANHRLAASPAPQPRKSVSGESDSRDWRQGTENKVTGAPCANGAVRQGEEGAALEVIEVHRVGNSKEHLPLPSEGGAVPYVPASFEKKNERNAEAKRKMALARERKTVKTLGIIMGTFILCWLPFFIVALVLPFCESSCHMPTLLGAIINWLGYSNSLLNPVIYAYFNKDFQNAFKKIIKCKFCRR
The series is described as follows: Serotonin (5HT1A) Binding Assay. The conditions noted are these: Bovine hippocampal membranes, [3H]-8-OH-DPAT 1.0 nM, read-out: Receptor Binding Activity Percent Inhibition Average (N = 2). Details: species or system Bovine.

Series [1] relates to Serotonin (Non-Selective). The series is described as follows: Serotonin (Non-Selective) Binding Assay. The conditions noted are these: Rat cortical membranes, [3H]Lysergic acid diethylamide 5.0 nM.
Series [2] deals with Glycine (Strychnine Insensitive) (Rattus norvegicus, UniProt P35439). The series is described as follows: biochemical. Type of series: binding. The conditions noted are these: read-out: Receptor Binding Activity Percent Inhibition Average (N = 2).
Series [3] has as its target T5, Human recombinant M1 clone (Homo sapiens, UniProt P11229).
T5 construct: expressed in transfected cells
T5 sequence (P11229 1-460): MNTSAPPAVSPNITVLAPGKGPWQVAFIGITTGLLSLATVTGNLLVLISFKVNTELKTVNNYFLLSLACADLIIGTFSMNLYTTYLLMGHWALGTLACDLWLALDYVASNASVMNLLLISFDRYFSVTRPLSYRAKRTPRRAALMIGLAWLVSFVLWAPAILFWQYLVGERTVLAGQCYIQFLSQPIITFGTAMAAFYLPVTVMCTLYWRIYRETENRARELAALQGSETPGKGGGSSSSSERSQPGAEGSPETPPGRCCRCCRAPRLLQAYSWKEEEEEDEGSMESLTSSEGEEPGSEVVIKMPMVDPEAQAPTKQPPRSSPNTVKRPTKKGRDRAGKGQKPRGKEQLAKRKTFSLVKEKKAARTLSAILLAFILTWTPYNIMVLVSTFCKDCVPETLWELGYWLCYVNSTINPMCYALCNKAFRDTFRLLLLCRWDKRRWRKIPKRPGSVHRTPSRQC
The series is described as follows: biochemical. Type of series: binding.

In series [4] the target is T6, Human recombinant M2 clone (Homo sapiens, UniProt P08172).
T6 construct: expressed in transfected cells
T6 sequence (P08172 1-466): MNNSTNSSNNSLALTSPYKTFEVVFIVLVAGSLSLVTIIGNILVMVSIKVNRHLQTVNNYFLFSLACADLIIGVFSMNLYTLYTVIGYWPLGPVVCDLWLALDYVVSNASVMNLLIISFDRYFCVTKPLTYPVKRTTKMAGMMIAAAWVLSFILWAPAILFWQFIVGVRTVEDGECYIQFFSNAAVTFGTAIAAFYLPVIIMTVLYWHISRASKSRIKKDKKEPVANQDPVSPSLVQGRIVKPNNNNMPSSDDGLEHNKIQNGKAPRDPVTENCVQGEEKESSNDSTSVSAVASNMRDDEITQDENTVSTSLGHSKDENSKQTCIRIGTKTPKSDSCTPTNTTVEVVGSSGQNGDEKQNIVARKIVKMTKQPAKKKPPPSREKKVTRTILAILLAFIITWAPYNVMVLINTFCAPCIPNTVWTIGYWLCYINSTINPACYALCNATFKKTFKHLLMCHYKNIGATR
The series is described as follows: Muscarinic--M2 Clone Binding Assay.

The target in series [5] is T7, Inositol Triphosphate (IP3) (Rattus norvegicus, UniProt P29994).
T7 construct: Rat cerebellar membranes; from tissue; host or cells: rat cerebellar membranes
T7 sequence (P29994 whole entry): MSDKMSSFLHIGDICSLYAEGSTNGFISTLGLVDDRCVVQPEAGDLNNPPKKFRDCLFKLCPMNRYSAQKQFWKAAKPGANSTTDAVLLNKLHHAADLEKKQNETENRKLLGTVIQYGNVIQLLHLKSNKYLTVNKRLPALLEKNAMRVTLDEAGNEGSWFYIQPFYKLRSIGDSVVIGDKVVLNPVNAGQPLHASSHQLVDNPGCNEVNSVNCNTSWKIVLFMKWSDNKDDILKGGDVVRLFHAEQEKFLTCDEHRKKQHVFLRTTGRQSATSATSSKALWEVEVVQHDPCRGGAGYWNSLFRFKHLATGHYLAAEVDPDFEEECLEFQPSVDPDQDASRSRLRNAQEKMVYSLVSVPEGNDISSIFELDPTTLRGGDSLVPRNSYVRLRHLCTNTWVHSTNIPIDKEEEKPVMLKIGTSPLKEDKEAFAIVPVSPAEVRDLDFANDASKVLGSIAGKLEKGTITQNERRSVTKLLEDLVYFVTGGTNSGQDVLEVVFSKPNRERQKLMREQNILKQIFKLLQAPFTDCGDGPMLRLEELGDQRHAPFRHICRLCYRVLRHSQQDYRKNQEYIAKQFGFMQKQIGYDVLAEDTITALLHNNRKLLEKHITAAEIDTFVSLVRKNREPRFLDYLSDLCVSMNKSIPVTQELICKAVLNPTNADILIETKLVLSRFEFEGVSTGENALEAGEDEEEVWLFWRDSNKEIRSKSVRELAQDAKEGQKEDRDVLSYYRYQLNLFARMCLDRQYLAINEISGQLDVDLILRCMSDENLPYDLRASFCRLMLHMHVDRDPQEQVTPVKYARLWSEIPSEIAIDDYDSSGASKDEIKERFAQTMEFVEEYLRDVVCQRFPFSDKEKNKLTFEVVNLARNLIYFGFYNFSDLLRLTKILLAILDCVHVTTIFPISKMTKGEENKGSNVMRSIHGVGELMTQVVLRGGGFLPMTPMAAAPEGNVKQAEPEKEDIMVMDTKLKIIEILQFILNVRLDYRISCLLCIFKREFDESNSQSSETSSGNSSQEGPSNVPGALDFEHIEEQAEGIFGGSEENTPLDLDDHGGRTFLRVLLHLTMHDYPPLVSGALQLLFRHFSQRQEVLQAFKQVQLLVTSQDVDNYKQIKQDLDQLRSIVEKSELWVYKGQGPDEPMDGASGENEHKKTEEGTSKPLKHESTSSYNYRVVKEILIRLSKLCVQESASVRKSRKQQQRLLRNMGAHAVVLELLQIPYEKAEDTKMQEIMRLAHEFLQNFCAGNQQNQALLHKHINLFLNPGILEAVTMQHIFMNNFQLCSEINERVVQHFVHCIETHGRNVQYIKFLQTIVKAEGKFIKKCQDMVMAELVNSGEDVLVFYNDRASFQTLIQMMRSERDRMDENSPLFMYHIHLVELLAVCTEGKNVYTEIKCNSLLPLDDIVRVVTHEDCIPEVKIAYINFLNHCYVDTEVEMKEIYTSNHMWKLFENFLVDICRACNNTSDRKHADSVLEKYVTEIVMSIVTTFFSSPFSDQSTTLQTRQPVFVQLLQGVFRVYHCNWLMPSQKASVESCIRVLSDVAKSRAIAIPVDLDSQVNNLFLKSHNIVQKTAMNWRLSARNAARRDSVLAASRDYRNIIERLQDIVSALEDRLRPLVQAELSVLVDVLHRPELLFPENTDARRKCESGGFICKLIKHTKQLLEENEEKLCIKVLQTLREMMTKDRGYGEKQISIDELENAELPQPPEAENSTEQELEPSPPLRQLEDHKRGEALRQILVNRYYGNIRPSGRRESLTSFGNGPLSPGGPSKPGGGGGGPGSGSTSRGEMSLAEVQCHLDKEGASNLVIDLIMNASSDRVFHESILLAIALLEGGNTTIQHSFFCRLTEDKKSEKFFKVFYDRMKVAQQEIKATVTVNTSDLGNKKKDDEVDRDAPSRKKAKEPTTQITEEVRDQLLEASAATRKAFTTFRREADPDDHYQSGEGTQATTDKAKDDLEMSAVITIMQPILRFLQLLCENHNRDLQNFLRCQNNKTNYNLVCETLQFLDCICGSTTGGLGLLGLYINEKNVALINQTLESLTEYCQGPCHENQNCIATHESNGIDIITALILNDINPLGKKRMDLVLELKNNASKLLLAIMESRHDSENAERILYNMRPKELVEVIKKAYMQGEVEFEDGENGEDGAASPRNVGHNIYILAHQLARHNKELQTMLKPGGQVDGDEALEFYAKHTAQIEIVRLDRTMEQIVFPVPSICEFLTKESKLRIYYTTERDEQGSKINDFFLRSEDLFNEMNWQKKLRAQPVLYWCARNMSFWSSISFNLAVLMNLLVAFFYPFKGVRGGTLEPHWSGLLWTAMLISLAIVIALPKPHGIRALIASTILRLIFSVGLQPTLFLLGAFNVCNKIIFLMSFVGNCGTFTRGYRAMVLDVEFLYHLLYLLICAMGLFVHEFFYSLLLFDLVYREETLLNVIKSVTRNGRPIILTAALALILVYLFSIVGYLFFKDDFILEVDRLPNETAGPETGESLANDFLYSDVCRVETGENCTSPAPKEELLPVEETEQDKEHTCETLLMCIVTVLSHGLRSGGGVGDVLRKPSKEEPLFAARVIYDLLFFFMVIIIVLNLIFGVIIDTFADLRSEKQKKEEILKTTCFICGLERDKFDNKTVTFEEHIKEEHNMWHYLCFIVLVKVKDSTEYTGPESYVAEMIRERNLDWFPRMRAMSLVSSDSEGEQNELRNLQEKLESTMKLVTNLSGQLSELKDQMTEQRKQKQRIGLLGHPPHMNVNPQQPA
The series is described as follows: Inositol Triphosphate (IP3) Binding Assay. The conditions noted are these: Rat cerebellar membranes, [3H]IP3 4.0 nM, read-out: Receptor Binding Activity Percent Inhibition Average (N = 2). The procedure:
Tissue cultures were prepared using standard laboratory practice for the following tissues: human recombinant M1 clone, human recombinant M2 clone, guinea pig striatal membranes, rat cortical membranes, rat striatal membranes, rat forebrain membranes, bovine hippocampal membranes, guinea pig cerebellar membranes, rat kidney membranes, recombinant rat 5HT7 clone, and rat cerebellar membranes.
Inositol Triphosphate (IP3) Binding Assay
Rat cerebellar membranes
Radioligand: [^3 H]IP3 (10-30 Ci/mmol)
Final ligand concentration - [4.0 nM]
D-myo-inositol 1,4,5-triphosphate
Reactions are carried out in 50 mM TRIS-HCl (pH 8.3)
1 mM EDTA at 0° C. for 10 minutes. The reaction is
rapid vacuum filtration onto glass fiber filters.
onto the filters is determined and compared to control
order to ascertain any interactions of test compound with
inositol triphospate binding site.

The nature of series [6]: Half-life, bioavailability and blood levels in humans. More on the design: species or system human. The conditions noted are these: in vivo.
The conditions of series [7]: intravenous; cats; cited from earlier work.
For series [8] the following is noted: intramuscular injections; wide range of doses; squirrel monkeys; cited from earlier work.
Where [9] appears, read: read-out: Receptor Binding Activity Percent Inhibition Average (N = 2).

T1 sequence (H0WCX4 1-619): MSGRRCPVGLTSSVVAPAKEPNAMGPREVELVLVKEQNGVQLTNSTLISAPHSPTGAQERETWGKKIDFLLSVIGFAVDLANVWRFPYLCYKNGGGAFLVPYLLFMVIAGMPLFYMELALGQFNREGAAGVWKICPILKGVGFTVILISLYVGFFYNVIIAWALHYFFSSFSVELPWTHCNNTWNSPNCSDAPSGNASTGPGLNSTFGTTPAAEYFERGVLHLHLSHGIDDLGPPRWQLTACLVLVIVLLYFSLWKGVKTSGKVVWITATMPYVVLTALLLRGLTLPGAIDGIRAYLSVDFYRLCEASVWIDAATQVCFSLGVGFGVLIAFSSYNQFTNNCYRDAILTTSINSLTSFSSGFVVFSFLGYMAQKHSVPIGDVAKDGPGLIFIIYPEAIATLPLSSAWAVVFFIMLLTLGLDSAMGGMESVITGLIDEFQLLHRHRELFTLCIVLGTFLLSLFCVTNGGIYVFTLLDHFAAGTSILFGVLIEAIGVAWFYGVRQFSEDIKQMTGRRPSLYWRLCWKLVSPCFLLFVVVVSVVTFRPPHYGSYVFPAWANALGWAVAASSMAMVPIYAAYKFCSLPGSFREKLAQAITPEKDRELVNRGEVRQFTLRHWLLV

For `CN1C(=O)CCC1c1cccnc1` (single isomer, unassigned) [Cotinine, 1-methyl-5-(3-pyridinyl)-2-pyrrolidionone], the “Receptor Binding Activity Percent Inhibition Average (N = 2)” value at dopamine uptake site (10^-4 M) is reported as 7.5%; on dopamine uptake site (10^-6 M) it was 14.2%; at Dopamine (D1 Central) (10^-4 M), 3.3%; at Dopamine (D1 Central) (10^-6 M) it was 2.9%; in [1] (10^-4 M) it was 12.1%; in series [1] (10^-6 M), 4.6%. The inhibition (in general, the drop in the measured response relative to a control, in per cent) at 100 µM on GABA uptake site (10^-4 M) is 7.4%; at Serotonin (5HT1A) (10^-4 M), 1.4%; in series [2], -0.6%; in series [3] (setting [9]) it was 19.5%; in series [4] (setting [9]) it was 21.6%; in series [5] (10^-4 M) it was 8.3%. Further, the inhibition at 1 µM at GABA uptake site (10^-6 M) came to 13.9%; on Serotonin (5HT1A) (10^-6 M) it was 1.1%; in series [2] it was 10.9%; in series [3] (setting [9]), 15.5%; in [4] (setting [9]), 22.3%; in series [5] (10^-6 M) it was 4.8%. Moreover, the “effectiveness in binding relative to an equal concentration of nicotine, binding expressed as percent inhibition” value in [3] is “about 19 times”; in [4] (muscarinic-2 receptor, human tissue), “about five”. The “duration of effectiveness relative to nicotine, due to greater half-life” value in series [6] was “about eight”. Also, the “EEG activity and behavioral arousal” value in series [7] is listed as “increases only slightly”. The blood pressure result in series [7] is “only a slight decrease”. In series [8], the “rates of responding on fixed interval schedules of reinforcement” value is on record as “increased rates of responding”.
